Measurements taken from patent publication US5756480A, “Treatment of hyperandrogenic conditions” (Merck & Co., Inc., priority 1996, dated 1998).
Entries after “also recorded” stand apart in the source; their conditions may differ. Read-outs that look alike come from different tables or passages of the source.

Key:
[1] = test system: human prostate (type 2) isozyme; conditions: cited from earlier work
[2] = test system: dihydrotestosterone levels; conditions: circulating finasteride concentrations comparable to Ki = 26 nM; result in words; cited from earlier work
[3] = test system: human prostate (type 2) 5α-reductase; conditions: result in words, cited from earlier work
[4] = test system: human skin (type 1) isozyme; conditions: cited from earlier work
type 2 5α-reductase = biological target: T1, type 2 5α-reductase (Homo sapiens, UniProt P31213); experiment: Progress curves of DHT formation, slow-binding inhibition of baculovirus-expressed type 2 5α-reductase; type: biochemical
T1 construct: made in house
T1 sequence (P31213 1-254): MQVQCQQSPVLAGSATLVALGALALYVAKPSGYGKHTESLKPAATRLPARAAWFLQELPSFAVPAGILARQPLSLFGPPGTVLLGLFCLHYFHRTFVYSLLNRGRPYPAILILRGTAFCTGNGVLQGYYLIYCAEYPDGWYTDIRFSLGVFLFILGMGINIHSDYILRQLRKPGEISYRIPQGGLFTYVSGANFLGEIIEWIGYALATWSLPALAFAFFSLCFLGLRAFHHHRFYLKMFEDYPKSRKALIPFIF
Method: Ethanol is included at 1% final concentration as the vehicle for introduction of inhibitors. The rate of production of [^3 H]dihydrotestosterone is approximately constant for up to 2 hours or 10% consumption of substrate. A unit of enzyme activity was defined as 1 pmol product/min, and is equal to 444 fmol enzyme under these conditions.
After quenching the reactions with an equal volume, or more, of water containing 1% trifluoroacetic acid, the [^3 H]dihydrotestosterone is isolated by direct injection onto a reverse phase C-18 column (Vydac, 4.6×250 mm, 300 Å, 5 micron), which is run in an isocratic system of 40% water (containing 0.1% trifluoroacetic acid) and 60% methanol at 1 mL/min. When tissue extracts are the source of enzyme, the quenched reactions are clarified by centrifugation at 10,000×g before analysis. Retention times are ~13 min for testosterone and ~20 min for dihydrotestosterone. The effluent containing the [^3 H]dihydrotestosterone peak (6 mL) is collected in a liquid scintillation vial and counted with AQUASOL 2 (14 mL, New England Nuclear) with an efficiency of 0.309. The assay is completely automated using a SUN SPARKSTATION 2 computer interfaced to a ZYMARK robot and ancillary equipment.
The native human enzyme was from prostate (type 2) or scalp (type 1) tissue, and the recombinant human enzymes were produced by the baculovirus expression system of Andersson, et al. (Chan, H. K., Geissler, W. M., Andersson, S., Sex Hormones and Antihormones in Endocrine Dependent Pathology: Basic and Clinical Aspects, M. Motta and M. Serio, eds., Elsevier Science 1994). […] Enzyme concentrations were determined by titration with finasteride, or [^3 H]finasteride, or from catalytic activity using kcat and Km values.
Alternatively, fractions may be collected and the samples counted on a scintillation counter. […] The time courses were fit to an integrated first-order rate equation (Equation 1), where A is product concentration, vo is the initial velocity, vs is the infinite-time velocity, and kobs is the first-order rate constant for progression of the enzyme between the two equilibrium states. […] (Ki=koff /kon).
A=vs t+(vo -vs)(1-e-^k obs^t)/kobs +Ao Equation

type 1 5α-reductase = experiment: Kinetic constants of type 1 5α-reductase; type: biochemical, human
Text: (§1) Ethanol is included at 1% final concentration as the vehicle for introduction of inhibitors. […] A unit of enzyme activity was defined as 1 pmol product/min, and is equal to 444 fmol enzyme under these conditions.
(§2) The molecular weight was taken to be about 30,000 in estimating enzyme purity.

[5] = substrate: C[C@]12CC[C@H]3[C@@H](CCC4=CC(=O)CC[C@@]43C)[C@@H]1CC[C@@H]2O; experiment: purified protein, by the assay type; conditions: other: baculovirus-expressed type 2 enzyme, pH 7.2, 37° C.
Text: as §1, §2

## CC(C)(C)NC(=O)[C@H]1CC[C@H]2[C@@H]3CC[C@H]4NC(=O)C=C[C@]4(C)[C@H]3CC[C@]12C [Finasteride, 17β-(N-tert-butylcarbamoyl)-3-oxo-4-aza-5α-androst-1-ene-3-one]
[1]; Faller et al. 1993
  rate constant for binding to the human prostate isozyme: 270000 M⁻¹ s⁻¹
[1]; human prostate (type 2) isozyme, result in words
  binding behavior / reversibility: slow-binding inhibitors; also recorded: essentially irreversible enzyme-inhibitor complex
[1]; printed as Ki <<1 nM, essentially irreversible complex, Faller et al. 1993
  Ki: < 1000 pM
[2]
  reduction of dihydrotestosterone levels: reduced levels of dihydrotestosterone to values approaching those found in individuals genetically deficient in the prostate isozyme
[3]
  inhibition of human prostate (type 2) enzyme: potent inhibitor of the human prostate enzyme
[3]; listed as finasteride
  inhibition of human prostate (type 2) enzyme: potently inhibited by finasteride
[4]; result in words, listed as finasteride
  inhibition of human skin (type 1) isozyme: relatively insensitive to finasteride; also recorded: not a significant inhibitor of human skin (type 1) isozyme at doses employed in the treatment of BPH
[4]; type 1, Tian et al. 1994
  second-order rate constant for formation of the complex: 4000 M⁻¹ s⁻¹

## CCN(CC)C(=O)[C@H]1CC[C@H]2[C@@H]3CC[C@H]4OC(=O)C=C[C@]4(C)[C@H]3CC[C@]12C [L-682,299, 17β-(N-diethyl)carbamoyl-4-oxa-5α-androst-1-en-3-one]
Type 2 5α-reductase
  Ki: < 100 pM
Type 2 5α-reductase; 20 nM inhibitor, pH 7.2, 37° C.
  velocity at infinite-time (vs): essentially zero
Type 2 5α-reductase; 20 nM inhibitor, pH 7.2, 37° C., result in words
  inhibition over time: the inhibition developed slowly with time and resulted in total inhibition of the enzyme
Type 2 5α-reductase; pH 7.2, read-out: second-order rate constant for binding to the type 2 isozyme
  kon at 0.02 µM: 56000 M⁻¹ s⁻¹

## C[C@]12CC[C@H]3[C@@H](CCC4=CC(=O)CC[C@@]43C)[C@@H]1CC[C@@H]2O [testosterone]
Type 1 5α-reductase
  Km: 7 µM
  kcat for the type 1 enzyme: 1.4 s⁻¹

B1: type 2 5α-reductase (Homo sapiens) (protein)
chain: MQVQCQQSPVLAGSATLVALGALALYVAKPSGYGKHTESLKPAATRLPARAAWFLQELPSFAVPAGILARQPLSLFGPPGTVLLGLFCLHYFHRTFVYSLLNRGRPYPAILILRGTAFCTGNGVLQGYYLIYCAEYPDGWYTDIRFSLGVFLFILGMGINIHSDYILRQLRKPGEISYRIPQGGLFTYVSGANFLGEIIEWIGYALATWSLPALAFAFFSLCFLGLRAFHHHRFYLKMFEDYPKSRKALIPFIF
[5]
  Km: 0.0246 ± 0.0007 µM
  kcat: 0.075 ± 0.006 s⁻¹
  kcat/Km: 2.99±0.32×10^6 M^-1 s^-1
